This note sets out measurements from the supplement of paper PMC10307832.

Common to all, as to experiment: relative viability (nuclei count vs DMSO), 5 days (fraction); higher = more cells survive
Compound in the assay “Afatinib + Linsitinib”: CN(C)C/C=C/C(=O)Nc1cc2c(Nc3ccc(F)c(Cl)c3)ncnc2cc1O[C@H]1CCOC1 [Afatinib] + C[C@]1(O)C[C@@H](c2nc(-c3ccc4ccc(-c5ccccc5)nc4c3)c3c(N)nccn32)C1 [Linsitinib] (partner 1 µM)
The gist of the method: (§1)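 Relative viability divides the nuclei count in treated wells by that in vehicle wells. Lung cancer cell lines were seeded in 1536-well plates, dosed by pin tool the next day, and fixed and stained after 5 days in one step with final 0.05% Triton X-100, 1% formaldehyde and 1 ug/ml Hoechst. Dosing was a single drug or a fixed anchor-drug dose plus five library-drug doses (not always all listed) in √10 steps, and values are medians of duplicate plates imaged at 4×.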

Compound in the assay “Afatinib + Crizotinib”: CN(C)C/C=C/C(=O)Nc1cc2c(Nc3ccc(F)c(Cl)c3)ncnc2cc1O[C@H]1CCOC1 [Afatinib] + C[C@@H](Oc1cc(-c2cnn(C3CCNCC3)c2)cnc1N)c1c(Cl)ccc(F)c1Cl [Crizotinib] (partner 1 µM)
The gist of the method:
as §1

Compound in the assay “Afatinib + Tozasertib”: CN(C)C/C=C/C(=O)Nc1cc2c(Nc3ccc(F)c(Cl)c3)ncnc2cc1O[C@H]1CCOC1 [Afatinib] + Cc1cc(Nc2cc(N3CCN(C)CC3)nc(Sc3ccc(NC(=O)C4CC4)cc3)n2)n[nH]1 [Tozasertib] (partner 0.1 µM)
The procedure, abridged:
as §1

Compound in the assay “Afatinib + OSI-027”: CN(C)C/C=C/C(=O)Nc1cc2c(Nc3ccc(F)c(Cl)c3)ncnc2cc1O[C@H]1CCOC1 [Afatinib] + COc1cccc2cc(-c3nc([C@H]4CC[C@H](C(=O)O)CC4)n4ncnc(N)c34)[nH]c12 [OSI-027] (partner 0.5 µM)
The gist of the method:
as §1

NCI-H650: the relative viability turned out to be 0.872 with Afatinib + Linsitinib (first compound 0.005 µM); 0.706 with Afatinib + Linsitinib (first compound 0.01581 µM); 1.03 in the assay with Afatinib + Linsitinib (first compound 0.05 µM); 0.999 in the assay with Afatinib + Linsitinib (first compound 0.1581 µM); 0.697 in the assay with Afatinib + Linsitinib (first compound 0.5 µM); 0.856 with Afatinib + Crizotinib (first compound 0.005 µM). The relative viability with Afatinib + Crizotinib (first compound 0.01581 µM) is 0.674; in the assay with Afatinib + Crizotinib (first compound 0.05 µM), 0.72; with Afatinib + Crizotinib (first compound 0.1581 µM) it was 1.01; in the assay with Afatinib + Crizotinib (first compound 0.5 µM), 0.683; with Afatinib + Tozasertib (first compound 0.005 µM) it was 0.846; in the assay with Afatinib + Tozasertib (first compound 0.01581 µM), 0.735. The relative viability in the assay with Afatinib + Tozasertib (first compound 0.05 µM) came out at 0.782; in the assay with Afatinib + Tozasertib (first compound 0.1581 µM), 0.721; in the assay with Afatinib + Tozasertib (first compound 0.5 µM) it was 0.683; with Afatinib + OSI-027 (first compound 0.005 µM) it was 0.557; in the assay with Afatinib + OSI-027 (first compound 0.01581 µM) it was 0.475; with Afatinib + OSI-027 (first compound 0.05 µM), 0.566. Further, the relative viability was 0.516 in the assay with Afatinib + OSI-027 (first compound 0.1581 µM) and 0.503 with Afatinib + OSI-027 (first compound 0.5 µM).
As for NCI-H647, the relative viability in the assay with Afatinib + Linsitinib (first compound 0.005 µM) was found to be 1.1; in the assay with Afatinib + Linsitinib (first compound 0.01581 µM), 1.22; in the assay with Afatinib + Linsitinib (first compound 0.05 µM), 1.24; in the assay with Afatinib + Linsitinib (first compound 0.1581 µM) it was 1.27; with Afatinib + Linsitinib (first compound 0.5 µM), 1.18; with Afatinib + Crizotinib (first compound 0.005 µM) it was 1.26. The relative viability is 1.13 with Afatinib + Crizotinib (first compound 0.01581 µM); 1.01 in the assay with Afatinib + Crizotinib (first compound 0.05 µM); 1.04 with Afatinib + Crizotinib (first compound 0.1581 µM); 1.19 in the assay with Afatinib + Crizotinib (first compound 0.5 µM); 0.251 with Afatinib + Tozasertib (first compound 0.005 µM); 0.263 in the assay with Afatinib + Tozasertib (first compound 0.01581 µM). The relative viability with Afatinib + Tozasertib (first compound 0.05 µM) was found to be 0.417; in the assay with Afatinib + Tozasertib (first compound 0.1581 µM) it was 0.211; in the assay with Afatinib + Tozasertib (first compound 0.5 µM) it was 0.276; in the assay with Afatinib + OSI-027 (first compound 0.005 µM), 0.582; in the assay with Afatinib + OSI-027 (first compound 0.01581 µM), 0.629; with Afatinib + OSI-027 (first compound 0.05 µM), 0.487. Further, the relative viability turned out to be 0.705 with Afatinib + OSI-027 (first compound 0.1581 µM) and 0.554 in the assay with Afatinib + OSI-027 (first compound 0.5 µM).
For 201T, the relative viability with Afatinib + Linsitinib (first compound 0.005 µM) was 1.06; with Afatinib + Linsitinib (first compound 0.01581 µM) it was 0.986; with Afatinib + Linsitinib (first compound 0.05 µM) it was 0.909; in the assay with Afatinib + Linsitinib (first compound 0.1581 µM), 0.86; with Afatinib + Linsitinib (first compound 0.5 µM), 0.897; with Afatinib + Crizotinib (first compound 0.005 µM), 0.981. Further, the relative viability with Afatinib + Crizotinib (first compound 0.01581 µM) amounted to 0.863; with Afatinib + Crizotinib (first compound 0.05 µM) it was 0.959; with Afatinib + Crizotinib (first compound 0.1581 µM), 0.958; with Afatinib + Crizotinib (first compound 0.5 µM), 1; with Afatinib + Tozasertib (first compound 0.005 µM) it was 1.01; with Afatinib + Tozasertib (first compound 0.01581 µM), 0.915. Moreover, the relative viability came to 0.948 in the assay with Afatinib + Tozasertib (first compound 0.05 µM); 0.806 in the assay with Afatinib + Tozasertib (first compound 0.1581 µM); 0.827 with Afatinib + Tozasertib (first compound 0.5 µM); 0.7 with Afatinib + OSI-027 (first compound 0.005 µM); 0.642 with Afatinib + OSI-027 (first compound 0.01581 µM); 0.722 with Afatinib + OSI-027 (first compound 0.05 µM). In addition, the relative viability was determined as 0.62 in the assay with Afatinib + OSI-027 (first compound 0.1581 µM) and 0.653 with Afatinib + OSI-027 (first compound 0.5 µM).
Regarding NCI-H1650, the relative viability in the assay with Afatinib + Crizotinib (first compound 0.005 µM) came out at 0.907; with Afatinib + Crizotinib (first compound 0.05 µM), 0.8; in the assay with Afatinib + Crizotinib (first compound 0.1581 µM), 0.612; with Afatinib + Crizotinib (first compound 0.5 µM), 0.796; with Afatinib + Tozasertib (first compound 0.005 µM), 0.409; with Afatinib + Tozasertib (first compound 0.05 µM), 0.408. Moreover, the relative viability is 0.313 with Afatinib + Tozasertib (first compound 0.1581 µM); 0.343 with Afatinib + Tozasertib (first compound 0.5 µM); 0.476 in the assay with Afatinib + OSI-027 (first compound 0.005 µM); 0.557 with Afatinib + OSI-027 (first compound 0.05 µM); 0.439 with Afatinib + OSI-027 (first compound 0.1581 µM); 0.397 with Afatinib + OSI-027 (first compound 0.5 µM).
Consider NCI-H2170, for which the relative viability with Afatinib + Crizotinib (first compound 0.005 µM) is 1.07; in the assay with Afatinib + Crizotinib (first compound 0.01581 µM) it was 0.822; with Afatinib + Crizotinib (first compound 0.05 µM) it was 0.534; with Afatinib + Crizotinib (first compound 0.1581 µM), 0.25; with Afatinib + Crizotinib (first compound 0.5 µM) it was 0.286; in the assay with Afatinib + Tozasertib (first compound 0.005 µM) it was 0.651. Further, the relative viability was 0.574 in the assay with Afatinib + Tozasertib (first compound 0.01581 µM); 0.355 with Afatinib + Tozasertib (first compound 0.05 µM); 0.221 with Afatinib + Tozasertib (first compound 0.1581 µM); 0.203 in the assay with Afatinib + Tozasertib (first compound 0.5 µM); 0.67 in the assay with Afatinib + OSI-027 (first compound 0.005 µM); 0.5 with Afatinib + OSI-027 (first compound 0.01581 µM). Besides, the relative viability with Afatinib + OSI-027 (first compound 0.05 µM) is 0.293; with Afatinib + OSI-027 (first compound 0.1581 µM), 0.192; with Afatinib + OSI-027 (first compound 0.5 µM) it was 0.191.
For NCI-H1563, the relative viability with Afatinib + Linsitinib (first compound 0.005 µM) worked out at 1.32; with Afatinib + Linsitinib (first compound 0.01581 µM), 1.14; with Afatinib + Linsitinib (first compound 0.05 µM) it was 1.27; with Afatinib + Linsitinib (first compound 0.1581 µM) it was 1.06; with Afatinib + Linsitinib (first compound 0.5 µM), 1.21; with Afatinib + Crizotinib (first compound 0.005 µM) it was 0.844. Moreover, the relative viability with Afatinib + Crizotinib (first compound 0.01581 µM) is 0.835; with Afatinib + Crizotinib (first compound 0.05 µM) it was 0.872; with Afatinib + Crizotinib (first compound 0.1581 µM), 0.795; in the assay with Afatinib + Crizotinib (first compound 0.5 µM), 0.882; with Afatinib + OSI-027 (first compound 0.005 µM), 0.729; in the assay with Afatinib + OSI-027 (first compound 0.01581 µM), 0.739. The figures for the relative viability in the assay with Afatinib + OSI-027 (first compound 0.05 µM), with Afatinib + OSI-027 (first compound 0.1581 µM) and in the assay with Afatinib + OSI-027 (first compound 0.5 µM) were 0.737, 0.709 and 0.746, respectively.
For the cell line EBC-1, the relative viability with Afatinib + Linsitinib (first compound 0.005 µM) stood at 0.72; with Afatinib + Linsitinib (first compound 0.01581 µM), 0.827; with Afatinib + Linsitinib (first compound 0.05 µM) it was 0.903; with Afatinib + Linsitinib (first compound 0.1581 µM), 0.783; with Afatinib + Linsitinib (first compound 0.5 µM) it was 0.903; with Afatinib + Crizotinib (first compound 0.005 µM), 0.193. Further, the relative viability with Afatinib + Crizotinib (first compound 0.01581 µM) stood at 0.174; with Afatinib + Crizotinib (first compound 0.05 µM), 0.191; with Afatinib + Crizotinib (first compound 0.1581 µM), 0.189; with Afatinib + Crizotinib (first compound 0.5 µM) it was 0.209.
As for Calu-6, the relative viability in the assay with Afatinib + Linsitinib (first compound 0.005 µM) is 0.858; in the assay with Afatinib + Linsitinib (first compound 0.01581 µM) it was 0.876; with Afatinib + Linsitinib (first compound 0.05 µM), 1.06; with Afatinib + Linsitinib (first compound 0.1581 µM), 0.933; with Afatinib + Linsitinib (first compound 0.5 µM), 0.891; in the assay with Afatinib + Crizotinib (first compound 0.005 µM), 0.861. Further, the relative viability came to 0.654 with Afatinib + Crizotinib (first compound 0.01581 µM), 0.869 with Afatinib + Crizotinib (first compound 0.05 µM), 0.8 with Afatinib + Crizotinib (first compound 0.1581 µM) and 0.755 in the assay with Afatinib + Crizotinib (first compound 0.5 µM).
